Measurements published in ChEMBL document CHEMBL1147447, “Discovery and in vitro evaluation of potent TrkA kinase inhibitors: oxindole and aza-oxindoles” (Bioorg Med Chem Lett, 2004).
The source made the active and inactive calls. The rule behind the calls is not given here.

Tests used:
[1] = target: RAF proto-oncogene serine/threonine-protein kinase (Homo sapiens, UniProt P04049); test: Inhibition of c-Raf1 kinase
[2] = target: Cyclin-dependent kinase 2/cyclin A (Homo sapiens, UniProt P24941); test: Inhibition of Cyclin-dependent kinase 2 cyclin A; assay type: protein-complex assay
[3] = target: T1, High affinity nerve growth factor receptor (Homo sapiens, UniProt P04629); test: (§1) Inhibition of receptor Tyrosine kinase A, TrkA (nerve growth factor receptor)
Target sequence in this assay (P04629 whole entry): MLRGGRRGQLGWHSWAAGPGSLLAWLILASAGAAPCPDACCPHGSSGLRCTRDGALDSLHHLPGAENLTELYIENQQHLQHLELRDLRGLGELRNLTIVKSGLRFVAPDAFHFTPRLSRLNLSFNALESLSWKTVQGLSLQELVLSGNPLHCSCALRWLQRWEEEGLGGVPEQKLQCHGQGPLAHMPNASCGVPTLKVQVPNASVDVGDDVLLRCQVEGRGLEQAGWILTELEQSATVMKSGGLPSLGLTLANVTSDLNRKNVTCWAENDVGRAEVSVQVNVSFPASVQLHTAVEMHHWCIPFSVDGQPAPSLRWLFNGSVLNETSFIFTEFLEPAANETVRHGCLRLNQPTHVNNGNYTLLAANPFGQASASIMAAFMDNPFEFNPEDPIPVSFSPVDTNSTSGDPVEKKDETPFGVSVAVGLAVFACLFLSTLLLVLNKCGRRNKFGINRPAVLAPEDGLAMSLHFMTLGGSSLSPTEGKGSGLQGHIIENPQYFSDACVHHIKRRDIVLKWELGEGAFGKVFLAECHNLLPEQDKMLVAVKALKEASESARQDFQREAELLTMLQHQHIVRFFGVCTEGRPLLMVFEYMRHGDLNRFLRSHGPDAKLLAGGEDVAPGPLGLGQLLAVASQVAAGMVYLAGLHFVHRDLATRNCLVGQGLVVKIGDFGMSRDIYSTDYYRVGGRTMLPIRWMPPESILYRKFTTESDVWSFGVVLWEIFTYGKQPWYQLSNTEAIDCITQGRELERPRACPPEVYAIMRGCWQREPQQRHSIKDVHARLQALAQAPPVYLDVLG

[4] = Inhibition prostate cancer growth in 10 diverse animal models; assay type: functional, tissue-based; settings: Prostate gland
[5] = target: T1, High affinity nerve growth factor receptor; test: as §1; remark: listed apart in the source
Target sequence in this assay (P04629 33-796 limits assumed): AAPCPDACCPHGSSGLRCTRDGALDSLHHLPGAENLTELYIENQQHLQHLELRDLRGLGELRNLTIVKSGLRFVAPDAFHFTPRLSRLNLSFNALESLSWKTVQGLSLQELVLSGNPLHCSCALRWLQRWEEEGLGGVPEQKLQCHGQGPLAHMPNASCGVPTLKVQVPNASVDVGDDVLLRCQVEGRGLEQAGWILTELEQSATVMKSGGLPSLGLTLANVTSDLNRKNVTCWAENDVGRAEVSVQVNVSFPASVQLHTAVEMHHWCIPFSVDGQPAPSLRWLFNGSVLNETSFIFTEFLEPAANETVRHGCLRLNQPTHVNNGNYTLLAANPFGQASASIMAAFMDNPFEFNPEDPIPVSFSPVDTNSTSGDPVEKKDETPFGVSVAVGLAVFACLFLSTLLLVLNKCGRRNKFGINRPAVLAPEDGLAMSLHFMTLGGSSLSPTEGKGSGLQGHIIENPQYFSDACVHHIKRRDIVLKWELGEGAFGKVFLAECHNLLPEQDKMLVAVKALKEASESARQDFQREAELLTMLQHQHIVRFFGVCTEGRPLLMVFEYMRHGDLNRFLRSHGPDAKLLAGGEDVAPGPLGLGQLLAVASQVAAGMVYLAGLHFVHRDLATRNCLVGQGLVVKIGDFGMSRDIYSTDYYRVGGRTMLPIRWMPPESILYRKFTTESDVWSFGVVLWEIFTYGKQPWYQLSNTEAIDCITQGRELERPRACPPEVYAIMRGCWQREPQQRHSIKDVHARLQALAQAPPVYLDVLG

Sequence of RAF proto-oncogene serine/threonine-protein kinase (P04049 whole entry): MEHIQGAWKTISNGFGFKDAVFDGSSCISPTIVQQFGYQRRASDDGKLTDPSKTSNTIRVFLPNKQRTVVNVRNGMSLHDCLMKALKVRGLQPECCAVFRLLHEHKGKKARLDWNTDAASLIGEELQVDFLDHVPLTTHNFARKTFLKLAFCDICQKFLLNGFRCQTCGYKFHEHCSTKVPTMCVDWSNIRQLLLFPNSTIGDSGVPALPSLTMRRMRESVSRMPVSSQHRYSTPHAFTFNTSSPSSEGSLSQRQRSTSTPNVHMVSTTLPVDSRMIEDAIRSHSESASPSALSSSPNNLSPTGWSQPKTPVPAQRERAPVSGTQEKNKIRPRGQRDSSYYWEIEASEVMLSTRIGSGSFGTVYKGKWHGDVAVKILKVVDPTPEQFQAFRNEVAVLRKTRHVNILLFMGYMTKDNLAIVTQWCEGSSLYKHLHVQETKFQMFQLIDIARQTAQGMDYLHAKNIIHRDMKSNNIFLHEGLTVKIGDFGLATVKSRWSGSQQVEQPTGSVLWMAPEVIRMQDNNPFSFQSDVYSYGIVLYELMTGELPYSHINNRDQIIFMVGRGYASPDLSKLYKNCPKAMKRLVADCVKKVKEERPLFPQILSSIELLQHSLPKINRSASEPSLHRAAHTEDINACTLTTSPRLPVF

Row | SMILES | IC50 [1] [µM] | IC50 [2] [µM] | IC50 [3] [µM] | Activity [4] | Activity [5]
1 | CS(=O)(=O)Nc1ccc(N/C=C2\C(=O)Nc3ccccc32)cc1 [GW278681X] | > 10 | 8 | 0.006 | – | –
2 | O=C1Nc2ccc3ncsc3c2/C1=C/Nc1ccc(S(=O)(=O)Nc2ccccn2)cc1 | – | – | 0.009 | – | –
3 | NS(=O)(=O)c1cccc(N/C=C2\C(=O)Nc3ccccc32)c1 [GW275616X] | > 10 | > 10 | 0.063 | – | –
4 | COc1ccccc1-c1cc(/C=C2\C(=O)Nc3ncc(Br)cc32)cc(Br)c1O [GW442130X] | 0.7 | 10.4 | 0.008 | – | –
5 | Cn1cc(/C=C2\C(=O)Nc3cccnc32)c2ccccc21 | > 12 | – | – | – | –
6 | C[C@]12O[C@H](C[C@]1(O)CO)n1c3ccccc3c3c4c(c5c6ccccc6n2c5c31)CNC4=O | – | – | – | Active | Active

More lines, in order of falling IC50 [3], values ahead:

Row | IC50 [1] [µM] | IC50 [2] [µM] | IC50 [3] [µM] | SMILES | Activity [4] | Activity [5]
7 | – | – | 4.7 | O=C1Nc2ccc(I)cc2C1=Cc1cc(Br)c(O)c(Br)c1 [GW305074X] | – | –
8 | > 50 | > 50 | 0.061 | O=C1Nc2ncc(Br)cc2/C1=C/c1cccc(Oc2ccccc2)c1 | – | –
9 | 7.2 | > 6 | 0.012 | Cn1cc(/C=C2\C(=O)Nc3ncccc32)c2ccccc21 | – | –
10 | > 10 | 7.2 | 0.008 | O=C1Nc2ccccc2/C1=C/Nc1ccc(-n2cncn2)cc1 [GW301789X] | – | –
11 | > 10 | 2.5 | 0.007 | O=C1Nc2ccccc2/C1=C/Nc1ccc2[nH]c(=O)[nH]c2c1 [GW284408X] | – | –
12 | > 10 | 8 | 0.006 | O=C1Nc2ccccc2/C1=C1\CCc2cc(O)ccc21 | – | –
